Our source for the IC50 values is US8471024B2, “Tetrahydrofuropyridones” (priority 2008, dated 2013).

For orientation: IC50 means the concentration needed to halve the response being measured.

For this assay, the target named is T1, PHD2 (Homo sapiens, UniProt Q9GZT9).
T1 construct: FLAG-tagged full length PHD2expressed in and purified from baculovirus-infected Sf9 cells; FLAG; made in house; host or cells: baculovirus-infected Sf9 cells
T1 sequence (Q9GZT9 whole entry): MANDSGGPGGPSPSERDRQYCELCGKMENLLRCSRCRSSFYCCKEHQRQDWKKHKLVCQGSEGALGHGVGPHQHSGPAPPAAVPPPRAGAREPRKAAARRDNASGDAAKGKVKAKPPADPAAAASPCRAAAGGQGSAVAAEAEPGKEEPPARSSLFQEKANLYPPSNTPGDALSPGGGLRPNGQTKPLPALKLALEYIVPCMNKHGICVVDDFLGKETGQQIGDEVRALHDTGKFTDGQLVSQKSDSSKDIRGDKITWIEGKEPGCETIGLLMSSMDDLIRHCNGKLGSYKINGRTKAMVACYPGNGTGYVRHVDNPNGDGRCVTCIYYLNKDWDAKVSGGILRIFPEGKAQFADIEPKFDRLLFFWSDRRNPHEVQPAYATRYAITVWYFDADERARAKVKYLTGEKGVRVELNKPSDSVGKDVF
Nature of the assay: Assay for HIF-PHD2 Catalytic Activity (time resolved fluorescence, VHL complex detection). It is filed as biochemical. To be noted: FLAG-tagged full length PHD2; 0.2 μM 2-oxoglutarate, 0.5 μM HIF-1α peptide; read-out: PHD2 Binding Activity IC50. The method, then: Assay for HIF-PHD2Catalytic Activity To each well of a 96-well plate was added 1 μL of test compound in DMSO and 20 μl of assay buffer (50 mM Tris pH 7.4/0.01% Tween-20/0.1 mg/ml bovine serum albumin/10 μM ferrous sulfate/1mM sodium ascorbate/20 μg/ml catalase) containing 0.15 μg/ml FLAG-tagged full length PHD2expressed in and purified from baculovirus-infected Sf9 cells. After a 30 min preincubation at room temperature, the enzymatic reactions were initiated by the addition of 4 μL of substrates (final concentrations of 0.2 μM 2-oxoglutarate and 0.5 μM HIF-1α peptide biotinyl-DLDLEMLAPYJPMDDDFQL).
Regarding `O=C(O)CNC(=O)c1c(O)c2c(n(Cc3ccc(-c4ccccc4C(F)(F)F)cc3)c1=O)COC2` [Example 33, N-[(4-hydroxy-2-oxo-1-{[2′-(trifluoromethyl)biphenyl-4-yl]methyl}-1,2,5,7-tetrahydrofuro[3,4-b]pyridin-3-yl}carbonyl)glycine], the half-maximal inhibitory concentration (IC50) was below 10 nM.
In the case of `O=C(O)CNC(=O)c1c(O)c2c(n(Cc3ccc(-c4ccccc4OCC(F)(F)F)cc3)c1=O)COC2` [Example 34, N-[(4-hydroxy-1-{[2′-(2,2,2-trifluoroethoxy)biphenyl-4-yl]methyl}-2-oxo-1,2,5,7-tetrahydrofuro[3,4-b]pyridin-3-yl}carbonyl)glycine] it was below 10 nM; in that of `O=C(O)CNC(=O)c1c(O)c2c(n(Cc3ccc(-c4ccc(Cl)cc4Cl)cc3)c1=O)COC2` [Example 35], below 10 nM.
In the case of `COC(=O)c1ccccc1-c1ccc(Cn2c3c(c(O)c(C(=O)NCC(=O)O)c2=O)COC3)cc1` [Example 36, N-[(4-hydroxy-1-{[2′-(methoxycarbonyl)biphenyl-4-yl]methyl}-2-oxo-1,2,5,7-tetrahydrofuro[3,4,-b]pyridin-3-yl}carbonyl)glycine] it was below 10 nM; in that of `O=C(O)CNC(=O)c1c(O)c2c(n(Cc3ccc(-c4ccc(F)cc4Cl)cc3)c1=O)COC2` [Example 37], below 10 nM; in that of `O=C(O)CNC(=O)c1c(O)c2c(n(Cc3ccc(-c4ccccc4Cl)cc3F)c1=O)COC2` [Example 38], below 10 nM.
In the case of `O=C(O)CNC(=O)c1c(O)c2c(n(Cc3ccc(-c4ccc(F)cc4Cl)cc3F)c1=O)COC2` [Example 39] it was below 10 nM.
As to `CCN(CC)C(=O)c1ccccc1-c1ccc(Cn2c3c(c(O)c(C(=O)NCC(=O)O)c2=O)COC3)c(F)c1` [Example 40], the IC50 was below 10 nM.
Regarding `O=C(O)CNC(=O)c1c(O)c2c(n(Cc3ccc(-c4ccccc4)nc3)c1=O)COC2` [Example 41, N-({4-hydroxy-2-oxo-1-[(6-phenylpyridin-3-yl)methyl]-1,2,5,7-tetrahydrofuro[3,4-b]pyridin-3-yl}carbonyl)glycine], the IC50 was below 10 nM.
`O=C(O)CNC(=O)c1c(O)c2c(n(Cc3ccc(-c4cc(Cl)cc(Cl)c4)nc3)c1=O)COC2` [Example 42, N-[(1-{[6-(3,5-dichlorophenyl)pyridin-3-yl]methyl}-4-hydroxy-2-oxo-1,2,5,7-tetrahydrofuro[3,4-b]pyridin-3-yl)carbonyl]glycine]: the IC50 was below 10 nM.
As for `Cn1cc(-c2ccc(Cn3c4c(c(O)c(C(=O)NCC(=O)O)c3=O)COC4)cn2)cn1` [Example 43, N-[(4-hydroxy-1-{[6-(1-methyl-1H-pyrazol-4-yl)pyridin-3-yl)methyl}-2-oxo-1,2,5,7-tetrahydrofuro[3,4-b]pyridin-3-yl)carbonyl]glycine], the IC50 is below 10 nM.
Regarding `O=C(O)CNC(=O)c1c(O)c2c(n(Cc3ccc(-c4ccc(F)cc4F)nc3)c1=O)COC2` [Example 44, N-[(1-{[6-(2,4-difluorophenyl)pyridin-3-yl]methyl}-4-hydroxy-2-oxo-1,2,5,7-tetrahydrofuro[3,4-b]pyridin-3-yl)carbonyl]glycine], the IC50 is below 10 nM.
In the case of `O=C(O)CNC(=O)c1c(O)c2c(n(Cc3ccc(-c4cc(F)ccc4F)nc3)c1=O)COC2` [Example 45, N-[(1-{[6-(2,5-difluorophenyl)pyridin-3-yl]methyl}-4-hydroxy-2-oxo-1,2,5,7-tetrahydrofuro[3,4-b]pyridin-3-yl)carbonyl]glycine] it was below 10 nM; in that of `O=C(O)CNC(=O)c1c(O)c2c(n(Cc3ccc(-c4ccccc4OCC(F)(F)F)nc3)c1=O)COC2` [Example 46], below 10 nM; in that of `O=C(O)CNC(=O)c1c(O)c2c(n(Cc3ccc(-c4ccccc4C(F)(F)F)nc3)c1=O)COC2` [Example 47, N-{[4-hydroxy-2-oxo-1-({6-[2-(trifluoromethyl)phenyl]pyridin-3-yl}methyl)-1,2,5,7-tetrahydrofuro[3,4-b]pyridin-3-yl]carbonyl}glycine], below 10 nM.
The value for `O=C(O)CNC(=O)c1c(O)c2c(n(Cc3ccc(-c4ccccc4OC(F)(F)F)nc3)c1=O)COC2` [Example 48, N-{[4-hydroxy-2-oxo-1-({6-[2-(trifluoromethoxy)phenyl]pyridin-3-yl}methyl)-1,2,5,7-tetrahydrofuro[3,4-b]pyridin-3-yl]carbonyl}glycine] was below 10 nM; that for `O=C(O)CNC(=O)c1c(O)c2c(n(Cc3ccc(-c4ccccc4F)nc3)c1=O)COC2` [Example 49, N-[(1-{[6-(2-fluorophenyl)pyridin-3-yl]methyl}-4-hydroxy-2-oxo-1,2,5,7-tetrahydrofuro[3,4-b]pyridin-3-yl)carbonyl]glycine] was below 10 nM.
With `O=C(O)CNC(=O)c1c(O)c2c(n(Cc3ccc(-c4ccc(F)cc4Cl)nc3)c1=O)COC2` [Example 50, N-[(1-{[6-(2-chloro-4-fluorophenyl)pyridin-3-yl]methyl}-4-hydroxy-2-oxo-1,2,5,7-tetrahydrofuro[3,4-b]pyridin-3-yl)carbonyl]glycine], the IC50 was below 10 nM.
For `O=C(O)CNC(=O)c1c(O)c2c(n(Cc3cnc(-c4ccc(F)cc4F)cn3)c1=O)COC2` [Example 51, N-[(1-{[5-(2,4-difluorophenyl)pyrazin-2-yl]methyl}-4-hydroxy-2-oxo-1,2,5,7-tetrahydrofuro[3,4-b]pyridin-3-yl)carbonyl]glycine], the IC50 was below 10 nM.
For the molecule `O=C(O)CNC(=O)c1c(O)c2c(n(Cc3cnc(-c4ccc(F)c(F)c4)cn3)c1=O)COC2` [Example 52, N-[(1-{[5-(3,4-difluorophenyl)pyrazin-2-yl]methyl}-4-hydroxy-2-oxo-1,2,5,7-tetrahydrofuro[3,4-b]pyridin-3-yl)carbonyl]glycine], the IC50 is below 10 nM.
In the case of `O=C(O)CNC(=O)c1c(O)c2c(n(Cc3cnc(-c4ccccc4Cl)cn3)c1=O)COC2` [Example 53, N-[(1-{[5-(2-chlorophenyl)pyrazin-2-yl]methyl}-4-hydroxy-2-oxo-1,2,5,7-tetrahydrofuro[3,4-b]pyridin-3-yl)carbonyl]glycine] it was below 10 nM; in that of `O=C(O)CNC(=O)c1c(O)c2c(n(Cc3cnc(-c4ccccc4OC(F)(F)F)cn3)c1=O)COC2` [Example 54, N-[(1-{[5-(2-trifluoromethoxyphenyl)pyrazin-2-yl]methyl}-4-hydroxy-2-oxo-1,2,5,7-tetrahydrofuro[3,4-b]pyridin-3-yl)carbonyl]glycine], below 10 nM.
